Reference: PMC10439952, “JT002, a small molecule inhibitor of the NLRP3 inflammasome for the treatment of autoinflammatory disorders” (Scientific Reports, 2023)
Read-outs that look alike come from different tables or passages of the source.

What was measured:
caspase-1 = molecular target: T1, caspase-1 (Homo sapiens, UniProt P29466); assay: Cell-free biochemical caspase-1 assay
T1 construct: Reaction Biology Corporation (assay run there as a service)
T1 sequence (P29466 120-297 limits assumed): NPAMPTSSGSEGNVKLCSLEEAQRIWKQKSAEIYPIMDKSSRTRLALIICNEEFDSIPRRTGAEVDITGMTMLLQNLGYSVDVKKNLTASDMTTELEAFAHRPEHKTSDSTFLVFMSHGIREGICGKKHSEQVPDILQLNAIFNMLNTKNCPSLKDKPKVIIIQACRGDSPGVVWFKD
T1 sequence (P29466 317-404 limits assumed): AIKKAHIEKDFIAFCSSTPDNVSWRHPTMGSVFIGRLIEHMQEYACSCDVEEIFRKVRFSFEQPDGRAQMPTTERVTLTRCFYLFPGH
Protocol: (§1) Cell viability was determined by addition of an equal volume of CellTiter-Glo® 2.0 reagent (Promega) to the remaining cells/supernatant in each well. Intracellular Caspase-1 activity was measured using the Caspase-Glo® assay (Promega) according to the manufacturer’s instructions. The biochemical capsase-1 assay was conducted at Reaction Biology Corporation (Malvern, USA). Human IL-1β, IL-1α, and TNFα and mouse IL-1β were measured in cell culture supernatants using homogeneous time resolved fluorescence assay kits (HTRF, Cisbio, Codolet, France). Human IL-18 was measured in cell culture supernatants using an ELISA kit (R&D Systems, Minneapolis, MN, USA). Plasma IL-1β concentrations were determined by Quantikine® ELISA (R&D Systems, Minneapolis, MN).

[1] = Pharmacokinetics in male Beagle dogs after i.v. and p.o. administration; format: in vivo; settings: plasma, Dog
Protocol: The pharmacokinetics (PK) of JT002 were assessed in male Sprague–Dawley rats and male Beagle dogs after intravenous (i.v.) and oral (p.o.) administration (Table 2). […] In dogs, a maximum drug plasma concentration (Cmax) of 4.0 µg/mL (9 µM) was reached 1 h after a single 1 mg oral dose. Dose-adjusted exposures (dose-adjusted AUC) from oral administration were close to identical between rat and dog (11.8 versus 11.6) (Table 2).

NLRP3 inflammasome = NLRP3 inflammasome (Mus musculus, UniProt Q8R4B8); assay: Inhibition of IL-1β production in mouse BMDMs stimulated by LPS + monosodium urate crystals; format: cell-based; parameters: host or cells: mouse PBMCs; mouse bone-marrow derived macrophages; mouse whole blood (C57BL/6 in the ex vivo study); settings: Mouse BMDM, read-out: Geo Av IC50, IL-1β
Protocol: Inflammasome activation and whole blood assays were essentially carried out as described earlier. Details can be found in the supplementary information section accompanying this publication. A protocol for blood draws from healthy volunteers and use of the blood in preclinical assays was approved by Western Institutional Review Board, Inc (Puyallup, WA, USA). Informed consent was obtained from each donor prior to the first blood draw.
as §1
4H). MS: m/z 433.1 (M+H+). […]

[2] = system: pyroptosis of mouse BMDMs; assay: Inhibition of pyroptotic cell death measured by cellular ATP content (CellTiter-Glo viability) in LPS + nigericin stimulated mouse BMDMs; format: cell-based; settings: Mouse BMDM, read-out: Geo Av IC50, Viability (pyroptosis, cellular ATP content)
Protocol: as §1
4H). MS: m/z 433.1 (M+H+).
Inflammasome activation.PBMCs (iXCells Biotechnologies, San Diego, USA) were thawed the day before the assay and seeded in complete medium (RPMI 1640 medium with GlutaMAX, supplemented with an additional 2.5 g/L D-glucose, 10% Fet al Bovine Serum, 100 mM Sodium Pyruvate, 1% Penicillin/Streptomycin, 10 mM HEPES and 0.05 mM β -mercaptoethanol) in polystyrene V-bottom 96-well plates at 5x10^4 cells per well and incubated overnight at 37°C with 5% CO 2. The next day, PBMC media was r eplaced with serum-fr ee media p rior t o the assay. […]

NLRP3 inflammasome, sequence (Q8R4B8 whole entry): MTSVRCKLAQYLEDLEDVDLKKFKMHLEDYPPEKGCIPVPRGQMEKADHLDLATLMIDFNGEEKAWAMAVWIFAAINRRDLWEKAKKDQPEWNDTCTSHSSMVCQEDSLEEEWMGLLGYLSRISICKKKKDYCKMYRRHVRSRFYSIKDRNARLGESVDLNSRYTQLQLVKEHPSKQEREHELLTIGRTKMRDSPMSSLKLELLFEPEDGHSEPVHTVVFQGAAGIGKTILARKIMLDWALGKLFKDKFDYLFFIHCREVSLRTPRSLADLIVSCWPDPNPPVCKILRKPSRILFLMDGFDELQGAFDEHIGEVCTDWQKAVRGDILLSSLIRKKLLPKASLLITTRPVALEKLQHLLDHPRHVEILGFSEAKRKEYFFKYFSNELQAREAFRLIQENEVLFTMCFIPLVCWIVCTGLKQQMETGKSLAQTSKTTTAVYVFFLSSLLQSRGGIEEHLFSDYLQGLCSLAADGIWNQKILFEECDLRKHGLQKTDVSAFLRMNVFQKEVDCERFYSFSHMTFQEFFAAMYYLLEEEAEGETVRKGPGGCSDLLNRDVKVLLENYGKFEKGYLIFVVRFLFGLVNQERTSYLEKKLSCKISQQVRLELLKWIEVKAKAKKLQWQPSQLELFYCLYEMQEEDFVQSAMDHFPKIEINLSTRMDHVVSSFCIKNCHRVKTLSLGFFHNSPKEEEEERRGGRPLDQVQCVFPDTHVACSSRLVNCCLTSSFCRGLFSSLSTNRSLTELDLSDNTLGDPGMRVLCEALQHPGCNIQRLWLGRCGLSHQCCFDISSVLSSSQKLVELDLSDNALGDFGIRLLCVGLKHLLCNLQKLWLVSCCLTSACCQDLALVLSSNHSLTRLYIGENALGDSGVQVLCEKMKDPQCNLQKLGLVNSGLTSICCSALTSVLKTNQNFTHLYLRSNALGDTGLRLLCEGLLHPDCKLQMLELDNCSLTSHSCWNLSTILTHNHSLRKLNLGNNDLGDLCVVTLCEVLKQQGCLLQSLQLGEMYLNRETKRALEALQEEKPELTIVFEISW

Cmax ([1]; single 1 mg oral dose, read-out: maximum drug plasma concentration (Cmax)): 9 µM | AUC ([1]; iv, 1 mg/kg): 10600 ng·h/mL | half-life ([1]; iv, 1 mg/kg): 1.1 h | clearance ([1]; iv, i.v., 1 mg/kg, read-out: Clpl (plasma clearance)): 1.8 mL/min/kg | Cmax ([1]; iv, i.v., 1 mg/kg, read-out: Cmax): 7000 ng/mL | Vd ([1]; iv, i.v., 1 mg/kg, read-out: Vss): 0.2 L/kg | AUC ([1]; po, 1 mg/kg): 11600 ng·h/mL | half-life ([1]; po, 1 mg/kg): 1.4 h | Tmax ([1]; po, 1 mg/kg, median): 1 h | Cmax ([1]; po, p.o., 1 mg/kg, read-out: Cmax): 4000 ng/mL | bioavailability ([1]; po, p.o., 1 mg/kg, sodium salt form, read-out: %F (oral bioavailability)): 100% | IC50 (NLRP3 inflammasome): 3 nM
SMILES: CO[C@@H]1COc2c(S(=O)(=O)NC(=O)Nc3c4c(cc5c3CCC5)CCC4)cnn2C1 [JT002]
direct inhibition of caspase-1 enzymatic activity (caspase-1): not a direct inhibitor of caspase-1 enzymatic activity | IC50 [2]: 7 nM
